Results taken from ChEMBL document CHEMBL1136876, “On the inhibition of HIV-1 protease by hydrazino-ureas displaying the N-->C=O interaction” (Bioorg Med Chem, 2009).

Experiments:
[1] = biological target: T1, Protease (Human immunodeficiency virus 1, UniProt Q9YQ12); assay: Inhibition of HIV1 protease by FRET assay
[2] = biological target: T1, Protease; assay: Inhibition of HIV1 protease by Lineweaver-Burke method
[3] = biological target: T1, Protease; assay: Inhibition of HIV1 protease by Hanes method
[4] = biological target: T1, Protease; assay: Inhibition of HIV1 protease by Dixon method

T1 sequence (Q9YQ12 whole entry): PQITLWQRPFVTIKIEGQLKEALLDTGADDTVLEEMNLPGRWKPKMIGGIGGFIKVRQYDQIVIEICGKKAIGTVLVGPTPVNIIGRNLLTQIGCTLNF

Compound | IC50 [1] [µM] | Ki [2] [µM] | Ki [3] [µM] | Ki [4] [µM]
C=CCOC(=O)N[C@]1(Cc2ccccc2)CC[N+]2(CCC[C@H]2C(=O)OC)C1[O-] (some centres undefined) | > 1000 | – | – | –
CC(C)[C@H](N)C(=O)N[C@]1(Cc2ccccc2)CC[N+]2(CCC[C@H]2C(=O)NC(=O)[C@@H](NC(C)(C)C)C(C)C)C1[O-] (some centres undefined) | 204 | 99 | 96 | 96
O=C1N[C@@H](Cc2ccccc2)C([O-])[N+]2(CCCCC2)N1Cc1ccccc1 (some centres undefined) | 37.2 | 26.2 | 26.2 | 34.8
O=C1N[C@H](Cc2ccccc2)C([O-])[N+]2(CCCCC2)N1Cc1ccccc1 (some centres undefined) | 543 | 461 | 461 | 454
CC(C)[C@H](N)C(=O)N[C@]1(Cc2ccccc2)CC[N+]2(CCC[C@H]2C(=O)NC(C)(C)C)C1[O-] (some centres undefined) | 545 | 574 | 618 | 577

Second part, the molecule after the results:

IC50 [1] [µM] | Ki [2] [µM] | Ki [3] [µM] | Ki [4] [µM] | Compound
44.5 | 34.3 | 34.3 | 43.9 | CC(C)(C)NC(=O)[C@@H]1CCC[N+]12C([O-])[C@H](Cc1ccccc1)NC(=O)N2Cc1ccccc1 (some centres undefined)
169 | 149 | 149 | 138 | CC[C@H](C)[C@H](NC(=O)[C@@H](NC(C)(C)C)C(C)C)C(=O)NC(=O)[C@@H]1CCC[N+]12C([O-])[C@H](Cc1ccccc1)NC(=O)N2Cc1ccccc1 (some centres undefined)
341 | 292 | 292 | 286 | CC(C)[C@H](NC(C)(C)C)C(=O)NC(=O)[C@@H]1CCC[N+]12C([O-])[C@H](Cc1ccccc1)NC(=O)N2Cc1ccccc1 (some centres undefined)
